Results on one compound are retold here after article PMC12749626, “Expediting hit-to-lead progression in drug discovery through reaction prediction and multi-dimensional optimization” (Nature Communications, 2025).

Some targets named below: PHOSPHODIESTERASE 3B (Homo sapiens, UniProt Q13370); CHOLECYSTOKININ 1 REC. (Homo sapiens, UniProt P32238); ESTROGEN REC. α (Homo sapiens, UniProt P03372); ABL1 (Homo sapiens, UniProt P00519).
Holding throughout (settings): 10 uM; n=2

UniProt P32238, sequence (P32238 whole entry): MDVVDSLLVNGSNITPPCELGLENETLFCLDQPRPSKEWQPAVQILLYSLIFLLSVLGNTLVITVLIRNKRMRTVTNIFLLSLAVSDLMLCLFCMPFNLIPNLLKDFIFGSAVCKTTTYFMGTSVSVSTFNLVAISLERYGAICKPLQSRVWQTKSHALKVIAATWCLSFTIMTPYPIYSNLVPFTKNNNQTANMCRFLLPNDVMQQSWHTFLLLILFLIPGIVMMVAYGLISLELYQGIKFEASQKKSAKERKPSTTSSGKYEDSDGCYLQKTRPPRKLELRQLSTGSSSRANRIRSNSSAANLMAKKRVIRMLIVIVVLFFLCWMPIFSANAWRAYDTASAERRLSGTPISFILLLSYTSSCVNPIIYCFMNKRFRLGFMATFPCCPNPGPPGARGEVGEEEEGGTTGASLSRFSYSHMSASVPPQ
ESTROGEN REC. α, sequence (P03372 whole entry): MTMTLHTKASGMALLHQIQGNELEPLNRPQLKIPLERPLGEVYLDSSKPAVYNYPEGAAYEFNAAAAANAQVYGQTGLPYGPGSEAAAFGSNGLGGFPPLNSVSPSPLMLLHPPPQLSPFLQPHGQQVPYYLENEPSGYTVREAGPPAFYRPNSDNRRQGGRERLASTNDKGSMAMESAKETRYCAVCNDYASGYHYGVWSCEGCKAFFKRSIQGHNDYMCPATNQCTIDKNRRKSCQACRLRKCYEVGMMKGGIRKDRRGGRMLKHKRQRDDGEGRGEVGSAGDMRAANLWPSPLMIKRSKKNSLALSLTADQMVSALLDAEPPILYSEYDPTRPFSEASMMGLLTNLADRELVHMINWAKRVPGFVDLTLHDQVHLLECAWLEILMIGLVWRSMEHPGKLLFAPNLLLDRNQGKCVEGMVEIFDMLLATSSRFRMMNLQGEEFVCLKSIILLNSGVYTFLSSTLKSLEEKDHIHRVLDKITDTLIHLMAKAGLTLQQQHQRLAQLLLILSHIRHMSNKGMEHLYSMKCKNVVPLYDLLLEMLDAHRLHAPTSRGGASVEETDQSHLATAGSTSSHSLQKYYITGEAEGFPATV
UniProt Q13370, sequence (Q13370 whole entry): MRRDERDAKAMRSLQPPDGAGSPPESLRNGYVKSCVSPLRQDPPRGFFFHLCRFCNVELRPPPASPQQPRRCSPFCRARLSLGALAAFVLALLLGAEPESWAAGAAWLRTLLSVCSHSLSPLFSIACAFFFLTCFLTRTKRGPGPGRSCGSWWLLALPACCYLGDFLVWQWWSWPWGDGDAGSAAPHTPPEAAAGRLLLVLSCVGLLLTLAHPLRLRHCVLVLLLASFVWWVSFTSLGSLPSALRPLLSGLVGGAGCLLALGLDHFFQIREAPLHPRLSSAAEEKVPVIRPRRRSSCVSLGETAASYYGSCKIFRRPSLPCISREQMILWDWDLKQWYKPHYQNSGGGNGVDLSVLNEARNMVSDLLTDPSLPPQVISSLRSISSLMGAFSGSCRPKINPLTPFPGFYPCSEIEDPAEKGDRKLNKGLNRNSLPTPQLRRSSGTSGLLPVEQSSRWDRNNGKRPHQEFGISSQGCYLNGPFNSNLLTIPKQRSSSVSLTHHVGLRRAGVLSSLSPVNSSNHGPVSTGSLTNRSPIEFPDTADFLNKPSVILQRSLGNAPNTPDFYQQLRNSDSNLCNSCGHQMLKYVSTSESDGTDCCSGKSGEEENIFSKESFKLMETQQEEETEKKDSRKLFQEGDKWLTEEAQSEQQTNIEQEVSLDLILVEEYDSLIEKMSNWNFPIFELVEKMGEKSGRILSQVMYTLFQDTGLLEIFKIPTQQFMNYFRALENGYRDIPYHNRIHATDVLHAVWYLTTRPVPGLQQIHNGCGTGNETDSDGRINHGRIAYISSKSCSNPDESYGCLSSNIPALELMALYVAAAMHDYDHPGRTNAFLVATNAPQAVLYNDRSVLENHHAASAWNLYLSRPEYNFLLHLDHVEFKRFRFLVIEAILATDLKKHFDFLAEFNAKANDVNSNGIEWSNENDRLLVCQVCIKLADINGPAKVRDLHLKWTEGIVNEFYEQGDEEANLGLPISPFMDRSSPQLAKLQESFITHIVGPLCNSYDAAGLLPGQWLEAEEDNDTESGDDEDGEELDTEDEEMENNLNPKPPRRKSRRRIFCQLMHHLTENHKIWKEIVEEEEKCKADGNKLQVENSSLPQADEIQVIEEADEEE
ABL1, sequence (P00519 whole entry): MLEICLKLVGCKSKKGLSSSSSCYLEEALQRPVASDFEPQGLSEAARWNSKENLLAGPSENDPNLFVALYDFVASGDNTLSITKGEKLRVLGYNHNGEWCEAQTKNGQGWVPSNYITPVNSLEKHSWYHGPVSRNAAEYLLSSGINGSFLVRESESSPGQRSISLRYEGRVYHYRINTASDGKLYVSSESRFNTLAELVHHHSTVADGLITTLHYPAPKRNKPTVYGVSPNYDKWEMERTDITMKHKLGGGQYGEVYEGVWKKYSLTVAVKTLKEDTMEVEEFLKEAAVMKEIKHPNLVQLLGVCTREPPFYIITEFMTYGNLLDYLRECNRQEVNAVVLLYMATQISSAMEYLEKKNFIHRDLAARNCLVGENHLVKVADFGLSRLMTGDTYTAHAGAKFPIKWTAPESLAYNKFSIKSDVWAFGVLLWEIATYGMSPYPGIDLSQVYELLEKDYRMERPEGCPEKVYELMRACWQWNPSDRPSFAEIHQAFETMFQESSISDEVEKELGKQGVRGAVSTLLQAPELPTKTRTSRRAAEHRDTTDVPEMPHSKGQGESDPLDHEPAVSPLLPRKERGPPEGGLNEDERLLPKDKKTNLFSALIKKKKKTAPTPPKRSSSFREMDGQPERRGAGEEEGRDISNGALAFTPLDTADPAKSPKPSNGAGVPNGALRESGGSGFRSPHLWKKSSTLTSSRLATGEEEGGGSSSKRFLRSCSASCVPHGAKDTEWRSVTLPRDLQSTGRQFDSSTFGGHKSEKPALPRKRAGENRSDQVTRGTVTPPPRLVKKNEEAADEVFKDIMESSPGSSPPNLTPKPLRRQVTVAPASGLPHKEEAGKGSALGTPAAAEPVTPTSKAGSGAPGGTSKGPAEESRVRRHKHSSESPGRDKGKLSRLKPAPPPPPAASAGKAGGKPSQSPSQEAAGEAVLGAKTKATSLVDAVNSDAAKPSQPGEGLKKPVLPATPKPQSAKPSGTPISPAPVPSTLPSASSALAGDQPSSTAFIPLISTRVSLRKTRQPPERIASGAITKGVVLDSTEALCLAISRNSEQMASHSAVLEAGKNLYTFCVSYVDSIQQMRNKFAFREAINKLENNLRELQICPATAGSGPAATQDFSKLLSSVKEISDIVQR

As for `O=C(c1ccc2nc(-c3cnccc3C3(C4CCC4)CC3)oc2c1)N1CCN(c2nc3nc(Cl)ccc3o2)CC1` [Compound 27], on PHOSPHODIESTERASE 3B, the “PHOSPHODIESTERASE 3B percent activity or inhibition compared to the assay reference” value came to 1%. Besides, the “CHOLECYSTOKININ 1 REC. percent activity or inhibition compared to the assay reference” value on CHOLECYSTOKININ 1 REC. was 4%. Besides, the “ESTROGEN REC. α percent activity or inhibition compared to the assay reference” value at ESTROGEN REC. α is -20%. The “ABL1 percent activity or inhibition compared to the assay reference” value at ABL1 is reported as -3%.
